Residues, ends and D or L forms follow the SMILES beside them.

The text below walks through data of patent US20250152675A1, “I-TYPE RECOMBINANT COLLAGEN WITH HIGH TRANSDERMAL ABSORBABILITY, AND USE THEREOF” (XI'AN GIANT BIOGENE TECHNOLOLGY CO., LTD, priority 2022, published 2025).

This data set is described as follows: Transdermal penetration through ex vivo mouse skin in a single-chamber diffusion cell, content by BCA kit. The data set is classed as in vitro ADME, Kunming mice. As to conditions: collagen peptide 5 mg/ml in 0.9% NaCl, diffusion area 2.0 cm^2, 37.5° C. As for the experimental part: 1. Preparation of Mouse Skin Ex Vivo 10 Kunming mice of 20 to 22 g with half male and half […] were used in the experiment. After the mice were killed, the hairs on the abdomen were removed. Then the skin on the hair-removed area was peeled off, stripped of fat and tendons, and rinsed repeatedly with distilled water. After being washed, the mouse skins were rinsed with normal saline, then treated with 10% glycerol, and stored at −20° C. for use (use up within 7 days).
Single-chamber diffusion cell: The effective diffusion area of the diffusion cell is 2.0 cm^2, the volume of the receiving cell is 14 ml, the length of the custom-made stirrer is 1.4 cm, and the receiving solution is 0.9% NaCl solution.
The stored mouse skin was taken out, thawed, washed with normal saline, and sandwiched between the receiving chamber and the supplying chamber, with the medicated side facing the supplying chamber and the skin side facing the receiving chamber. The temperature of the water bath system was adjusted to 37.5° C., and the stirring speed was adjusted to 100 rpm/min. 0.9% NaCl solution pre-warmed at 37° C. was added to the receiving chamber and the air bubbles were exhausted, in order to reduce the interference, the inner surface of the mouse skin was firstly contacted with the receiving solution without medication and all the receiving solution was replaced. Then the 27 collagen peptides synthesized were prepared into 5 mg/ml solutions using 0.9% NaCl respectively, which were injected into the supplying chamber and firmly adhere to the mouse skin respectively. After 24 h, part of the receiving solution was absorbed with a syringe as the sample solution to determine the transdermal amount of collagen peptide.
The BCA kit method was used to determine the polypeptide content in the sample solution. […]
As for `CC(C)[C@H](NC(=O)[C@H](C)NC(=O)CNC(=O)[C@@H]1CCCN1C(=O)[C@@H]1CCCN1C(=O)CNC(=O)[C@@H]1CCCN1C(=O)[C@@H](NC(=O)CNC(=O)[C@H](CCCNC(=N)N)NC(=O)[C@H](CCC(=O)O)NC(=O)CNC(=O)[C@H](C)NC(=O)[C@H](CCCCN)NC(=O)CNC(=O)[C@@H]1CCCN1C(=O)[C@H](CCC(=O)O)NC(=O)CNC(=O)[C@H](C)NC(=O)[C@H](C)NC(=O)CNC(=O)[C@H](CCCCN)NC(=O)[C@@H]1CCCN1C(=O)CNC(=O)[C@@H]1CCCN1C(=O)[C@H](Cc1ccccc1)NC(=O)CN)C(C)C)C(=O)NCC(=O)N1CCC[C@H]1C(=O)N[C@@H](C)C(=O)NCC(=O)N[C@@H](CCCCN)C(=O)N[C@@H](CC(=O)O)C(=O)NCC(=O)N[C@@H](CCC(=O)O)C(=O)N[C@@H](C)C(=O)O` [compound 11] (H-GFPGPKGAAGEPGKAGERGVPGPPGAVGPAGKDGEA-OH; N-terminus and C-terminus assumed), the 24h penetration amount stood at 2576.34 µg.

Consider `CSCC[C@H](NC(=O)CNC(=O)[C@@H]1CCCN1C(=O)[C@H](CC(C)C)NC(=O)CNC(=O)[C@H](C)NC(=O)[C@@H](NC(=O)CNC(=O)[C@@H]1CCCN1C(=O)[C@H](CC(C)C)NC(=O)CNC(=O)[C@H](CCCNC(=N)N)NC(=O)[C@H](C)NC(=O)CNC(=O)[C@H](CCC(N)=O)NC(=O)[C@@H]1CCCN1C(=O)CNC(=O)[C@@H]1CCCN1C(=O)[C@@H]1CCCN1C(=O)CNC(=O)[C@H](CCCNC(=N)N)NC(=O)[C@H](CCC(=O)O)NC(=O)CN)[C@@H](C)O)C(=O)N[C@@H](CCCCN)C(=O)NCC(=O)N[C@@H](Cc1c[nH]cn1)C(=O)N[C@@H](CCCNC(=N)N)C(=O)NCC(=O)N[C@@H](Cc1ccccc1)C(=O)N[C@@H](CO)C(=O)NCC(=O)N[C@@H](CC(C)C)C(=O)N[C@@H](CC(=O)O)C(=O)NCC(=O)N[C@@H](C)C(=O)N[C@@H](CCCCN)C(=O)O` [compound 3] (H-GERGPPGPQGARGLPGTAGLPGMKGHRGFSGLDGAK-OH; N-terminus and C-terminus assumed), for which the 24h penetration amount is 2224.03 µg.

With `CSCC[C@H](NC(=O)CNC(=O)[C@H](CCC(N)=O)NC(=O)[C@H](CC(C)C)NC(=O)CNC(=O)[C@@H]1CCCN1C(=O)[C@H](C)NC(=O)CNC(=O)[C@H](CCC(N)=O)NC(=O)[C@H](CO)NC(=O)CNC(=O)[C@@H]1CCCN1C(=O)[C@H](C)NC(=O)CNC(=O)[C@@H]1CCCN1C(=O)[C@H](C)NC(=O)CNC(=O)[C@H](C)NC(=O)[C@H](CC(=O)O)NC(=O)CNC(=O)[C@H](CCCCN)NC(=O)[C@H](C)NC(=O)CNC(=O)[C@H](CC(=O)O)NC(=O)[C@H](CC(N)=O)NC(=O)CNC(=O)[C@@H]1CCCN1C(=O)[C@H](C)NC(=O)CNC(=O)[C@H](CC(N)=O)NC(=O)[C@H](C)NC(=O)CN)C(=O)N1CCC[C@H]1C(=O)NCC(=O)N[C@@H](CCC(=O)O)C(=O)N[C@@H](CCCNC(=N)N)C(=O)O` [compound 16] (H-GANGAPGNDGAKGDAGAPGAPGSQGAPGLQGMPGER-OH; N-terminus and C-terminus assumed), the 24h penetration amount was 2034.34 µg.

`CC(C)C[C@H](NC(=O)[C@H](CC(=O)O)NC(=O)CNC(=O)[C@@H]1CCCN1C(=O)[C@@H](NC(=O)CNC(=O)[C@H](CCC(N)=O)NC(=O)[C@H](CCC(=O)O)NC(=O)CNC(=O)[C@@H]1CCCN1C(=O)[C@H](CCCCN)NC(=O)CNC(=O)[C@H](C)NC(=O)[C@H](CCC(=O)O)NC(=O)CNC(=O)[C@@H]1CCCN1C(=O)[C@@H]1CCCN1C(=O)CNC(=O)[C@H](C)NC(=O)[C@@H]1CCCN1C(=O)CNC(=O)[C@@H]1CCCN1C(=O)[C@H](CC(C)C)NC(=O)CN)C(C)C)C(=O)NCC(=O)N[C@@H](C)C(=O)N1CCC[C@H]1C(=O)NCC(=O)N1CCC[C@H]1C(=O)N[C@@H](CO)C(=O)NCC(=O)N[C@@H](C)C(=O)N[C@@H](CCCNC(=N)N)C(=O)NCC(=O)N[C@@H](CCC(=O)O)C(=O)N[C@@H](CCCNC(=N)N)C(=O)O` [compound 13] (H-GLPGPAGPPGEAGKPGEQGVPGDLGAPGPSGARGER-OH; N-terminus and C-terminus assumed) returned a 24h penetration amount of 2098.04 µg.
